Experimental data: patent US9296778B2, “3′,5′-cyclic phosphate prodrugs for HCV infection” (Idenix Pharmaceuticals, Inc., priority 2012, dated 2016)
Where two headings read alike, the source gives them in different places.

How the values were obtained:
[1] = Stability in mouse blood; type: in vitro ADME; conditions: on ice, percent unchanged test compound
Description: (§1) Stability of compounds were determined in fresh human whole blood with K2EDTA as the anticoagulant (stored refrigerated at 2-8° C. and used within 7 days of receipt). The experiment was conducted with three replicates for each time point. Whole blood, pre-incubated at 37° C. for 10-15 minutes, was fortified with a solution of test compound for a final concentration of 0.5 μM and mixed for 30 sec. At intervals (0, 0.5, 1 and 2 hr), three 50 μL aliquots were combined with 200 μL (each) of an ice-cold solution of the internal standard (carbutamide 500 ng/mL in acetonitrile). The samples were vortexed for 30 sec and then centrifuged at 16,100 g for 5 min. The supernatant was analyzed by LC-MS/MS. The MS peak area ratio of the test compounds versus the internal standard was calculated and percent unchanged test compound was calculated for each time point using this ratio.
The stability in mouse blood was determined on ice at 0, 0.5 and 1 hr as herein.

[2] = Liver pharmacokinetics following a single oral dose in CD-1 mice; type: in vivo; conditions: single oral dose 25 mg/kg in PEG 200, CD-1 male mice; given at 1 μmol/kg; 25 mg/kg
Description: (§2) A single oral dose of test compound at 25 mg/kg in PEG 200 (dose volume 5 mL/kg) was administered to nine CD-1 male mice. Five untreated animals were used for the collection of control plasma and liver. Terminal plasma and liver samples were collected from three animals per time point at 4, 12 and 24 hours post dose. Liver specimens were collected from all animals immediately after the incision. Freezing forceps stored in liquid nitrogen were used to freeze the liver before excision.
Liver samples were analyzed for the active species 2′-methylguanosine triphosphate (2′-MeGTP) by LC-MS/MS. 2′-MeGTP levels were assayed by homogenizing (on ice) a known weight of mouse liver with 4× volume of 0.95 M trichloroacetic acid (TCA). Internal standard solution was added to the homogenate followed by neutralization with 20% ammonium hydroxide solution and addition of 500 μL 1% formic acid. The tissue samples were extracted by weak anion exchange solid phase extraction (SPE). Post extraction, the eluates were evaporated under nitrogen, followed by reconstitution before injection onto the LC-MS/MS system. The samples were chromatographed on a Luna NH2 column using a gradient system of ammonium acetate (1 mM to 20 mM and pH 8.0 to pH 10.0) in water and acetonitrile (70:30). The analyte was detected and quantified by tandem mass spectrometry in positive ion mode on an API4000 equipped with a Turbo Ionspray® interface. The calibration range was 10 to 10000 pmol/mL in mouse liver homogenate (50 to 50000 pmol/g of mouse liver).

[3] = tested on: fresh human hepatocytes; assay: Release of active metabolite in fresh human hepatocytes; type: in vitro ADME; conditions: 10 μM compound; for FHH TP Cmax: fresh human hepatocytes; for FHH TP AUC: fresh human hepatocytes, 6, 24 and 48 hours
Description: (§3) Plates of fresh human and mouse hepatocytes were obtained on ice. The medium was removed and replaced with hepatocyte culture medium (William's E supplemented with penicillin-streptomycin, 1% L-glutamine, 1% insulin-transferrin-selenium and 0.1 μM Dexamethasone (Invitrogen) or with Invitro GRO HI medium complemented with Torpedo antibiotics (Celsis)). Cells were left overnight in an incubator at 37° C. to acclimatize to culture and the medium.
(§4) Hepatocyte incubations were conducted at a final volume of 0.5 mL hepatocyte culture medium/well (0.8 million cells/well for human and 0.5 million cells/well for mouse; 12 well plate no overlay, collagen coat). Culture medium from overnight incubation of cells was removed and replaced with fresh medium, pre-warmed to 37° C., containing 10 μM of test compound from a stock solution in DMSO (final DMSO concentration was 0.1%). At each specific time point, incubation medium was removed and cell monolayers were carefully washed two times with ice-cold PBS. Following the last wash, all PBS was carefully removed and 1.0 mL of extraction solution (ice-cold 70% methanol/30% water) added. Cells were scraped off and suspended in the extraction solution, transferred to 2 mL polypropylene microfuge tubes and intracellular contents extracted overnight at −20° C.
(§5) After the overnight treatment the cellular extracts were prepared by centrifugation at 16,000×g for 10 min to remove cellular debris. The remaining sample was then dried using a refrigerated centrivap concentrator. Dry extracts were reconstituted in 1000 μL of HPLC-grade water and centrifuged at 16,000×g for 10 min. Aliquots (100 μL each) of the supernatant were transferred into a 96 well plate and internal standard (4 ng/mL final concentration) was added as the internal standard (IS) for LC-MS/MS analysis.
(§6) The incubation time points were 6, 24 and 48 hours for human hepatocytes and 1, 4, 8, 12 and 24 hours for mouse hepatocytes.

[4] = in vitro; conditions: human, HCV Replicon CC50, Zluc cells, CellTiter-Blue
[5] = Stability in simulated intestinal fluid; type: in vitro ADME; conditions: 100 μM, 2 hours at 37° C., percent of the peak area at time zero
Description: (§7) Simulated gastric and intestinal fluids containing pepsin and pancreatin respectively were prepared according to the U.S. Pharmacopoeia USP291 procedure (www.pharmacopeia.cn/v29240/usp29nf24s0_ris1s126.html). Compounds (final concentration 100 μM) were incubated in duplicate in the appropriate fluid for 2 hours at 37° C. The samples were quenched with 200 μl cold acetonitrile, vortexed for 30 seconds and then centrifuged at 16,100 g for 10 min. The supernatants were analyzed by HPLC on a C-18 column with UV detection at 252 nm. The time 0 samples were prepared by adding SGF or SIF fluid to the quenching solvent followed by the test compound. Stability of the compounds was determined by peak area of the test compounds after incubation and calculated as percent of the peak area observed at time zero.

[6] = Plasma pharmacokinetics following a single oral dose in CD-1 mice; type: in vivo; conditions: single oral dose 25 mg/kg in PEG 200, CD-1 male mice; given at 1 μmol/kg; 25 mg/kg
Description: as §2
Plasma samples were analyzed for 2′-methylguanosine (2′-MeG) by LC-MS/MS. The internal standard (IS) was 2′-MeG-D3. For protein precipitation and extraction, each plasma sample (50 μL) was treated with 500 μL of 0.2% formic acid in acetonitrile and 20 μL of the internal standard working solution. After vortexing and centrifugation, 500 μL of the sample extracts were transferred to a new plate, dried under N2 at ˜28° C. and reconstituted with 75 μL of 0.2% FA in water. The extracts were chromatographed on an Aquasil C18 column using a gradient system of 0.2% formic acid in water and acetonitrile. The analytes were detected and quantified by tandem mass spectrometry in positive ion mode on an MDS Sciex API5000 equipped with a Turbo Ionspray® interface. The calibration range was 0.500 (LLOQ) to 200 ng/mL in mouse plasma.

[7] = Stability in fresh human whole blood; type: in vitro ADME; conditions: 0.5 μM, percent unchanged test compound
Description: as §1

[8] = tested on: HCV genotype 1b replicon; assay: HCV Replicon Assay; type: cell-based; conditions: Zluc cells (Huh-7-derived, HCV genotype 1b replicon, luciferase reporter), 72 hours, read-out: HCV Replicon EC50
Description: Huh-7-derived cell line (Zluc) that harbors an HCV genotype 1b replicon and a luciferase reporter gene was grown in Dulbecco's Modified Eagle Medium (DMEM) supplemented with 10% fetal bovine serum, 2 mM GlutaMAX, 1% MEM nonessential amino acids, 100 IU/mL penicillin, 100 μg/mL streptomycin, and 0.5 mg/mL Geneticin® (G418). For dose response testing the cells were seeded in 96-well plates at 7.5×10^3 cells per well in a volume of 50 μL, and incubated at 37° C./5% CO2. Drug solutions were made up freshly in Huh-7 media as 2× stocks. Ten additional 5-fold dilutions were prepared from these stocks in DMEM without G418. At least three hours after Zluc cells were seeded, drug treatment was initiated by adding 50 μL of drug dilutions to the plates in duplicate. Final concentrations of drug ranged from 100 μM to […]. Cells were then incubated at 37° C./5% CO2. Alternatively, compounds were tested at two concentrations (1 μM and 10 μM). […] For this, media was removed from the plates via gentle tapping. Fifty microliters of ONE-glo luciferase assay reagent was added to each well. The plates were shaken gently for 3 min at room temperature and luminescence was measured on a Victor^3 V 1420 multilabel counter (Perkin Elmer) with a 1 second read time using a 700 nm cut-off filter. The EC50 values were calculated from dose response curves from the resulting best-fit equations determined by Microsoft Excel and XLfit 4.1 software. When screening at two fixed concentrations, the results were expressed as % inhibition at 1 μM and 10 μM.

[9] = tested on: Zluc cells; assay: cytotoxicity evaluation (CellTiter-Blue Cell Viability Assay); conditions: read-out: HCV Replicon CC50; Zluc cells, CellTiter-Blue
[10] = tested on: mouse hepatocytes; assay: Release of active metabolite in mouse hepatocytes; type: in vitro ADME; conditions: 10 μM compound; for MsH Cmax: mouse hepatocytes; for MsH AUC: mouse hepatocytes, 1, 4, 8, 12 and 24 hours
Description: as §3, §4, §5, §6

[11] = Stability in simulated gastric fluid; type: in vitro ADME; conditions: 100 μM, 2 hours at 37° C., percent of the peak area at time zero
Description: as §7

Compound | Stability WB_Mouse (ice; 1 hr) [1] [%] | Ms Liver 2′-MeGTP AUC [2] [pmol · hr/g at 1 μmol/kg] | FHH TP Cmax [3] | FHH TP AUC [3] | CC50 [4] [µM] | Stability SIF [5] [%] | Ms Plasma 2′-MeG AUC [6] [pmol · hr/mL at 1 μmol/kg] | Ms Plasma 2′-MeG Cmax [6] [pmol/mL at 1 μmol/kg] | Stability WB_Human (37° C.; 2 hr) [7] [%] | EC50 ([8]; Hepatitis C virus, 72 h) [µM] | CC50 [9] [µM] | EC50 [8] [µM] | MsH Cmax [10] [pmol/mill cells] | MsH AUC [10] [pmol · hr/mill cells] | Stability SGF [11] [%]
CCOc1nc(N)nc2c1ncn2[C@@H]1O[C@@H]2COP(=O)(OCCCC(=O)OC(C)C)O[C@H]2[C@@]1(C)O (single isomer, unassigned) [Compound 1 Diastereomer 1] | 79 | 560 | 85 pmol/mill cells | 3425 pmol · hr/mill cells | > 50 | 105 | 9 | 0.56 | 73 | 0.25 to 1 | – | – | – | – | –
CCOc1nc(N)nc2c1ncn2[C@@H]1O[C@@H]2COP(=O)(OCCCC(=O)OC(C)C)O[C@H]2[C@@]1(C)O (single isomer, unassigned) [Compound 1 Diastereomer 2] | 1 | 7400 | 278 pmol/mill cells | 10125 pmol · hr/mill cells | – | 83 | 68 | 8.6 | 87 | – | < 50 | < 0.25 | 330 | 8363 | –
CCOc1nc(N)nc2c1ncn2[C@@H]1O[C@@H]2COP(=O)(OCCSC(=O)C(C)(C)CO)O[C@H]2[C@@]1(C)O (single isomer, unassigned) [Compound 4 Diastereomer 1] | – | 480 | 120 pmol/mill cells | 4110 pmol · hr/mill cells | < 50 | 105 | 6.7 | 0.5 | 82 | < 0.25 | – | – | 468 | 15078 | –
CCOc1nc(N)nc2c1ncn2[C@@H]1O[C@@H]2COP(=O)(OCCSC(=O)C(C)(C)CO)O[C@H]2[C@@]1(C)O (single isomer, unassigned) [Compound 4 Diastereomer 2] | 105 | 1100 | 681 pmol/mill cells | 24086 pmol · hr/mill cells | – | 77 | 24 | 1.7 | 59 | – | < 50 | < 0.25 | 386 | 13328 | –
CCOc1nc(N)nc2c1ncn2[C@@H]1O[C@@H]2COP(=O)(OCCSC(=O)C(C)(C)CO)O[C@H]2[C@@]1(C)F (single isomer, unassigned) [Compound 5 Diastereomer 2] | 93 | 2600 | 448 pmol/mill cells | 9694 pmol · hr/mill cells | – | 77 | 220 | 23 | 46 | – | > 50 | < 0.25 | 302 | 8713 | –
CCOc1nc(N)nc2c1ncn2[C@@H]1O[C@@H]2COP(=O)(OCCSSC(C)(C)C)O[C@H]2[C@@]1(C)F (single isomer, unassigned) [Compound 24 Diastereomer 2] | – | – | 105 pmol/mill cells | 3031 pmol · hr/mill cells | – | 47 | – | – | 73 | – | < 50 | < 0.25 | – | – | 30
CCOc1nc(N)nc2c1ncn2[C@@H]1O[C@@H]2COP(=O)(OC[C@H](C)NC(=O)OC)O[C@H]2[C@@]1(C)F (single isomer, unassigned; diastereomer 2) [Compound 9 Diastereomer 2] | – | – | BLD^a | BLD^a | – | 105 | – | – | 85 | – | > 50 | < 0.25 | – | – | 85
